Experimental data: the NIST ThermoML archive (doi:10.1016/j.jct.2005.04.017)

Assay: mn = molality of the nth substance listed, in mol/kg
Conditions: Liquid, Capillary tube (Ostwald / Ubbelohde) method

O=[N+]([O-])[O-].O=[N+]([O-])[O-].[Ni+2] [nickel(II) nitrate] + O
viscosity [mPa·s]
Conditions | 100 kPa | 10000 kPa | 20000 kPa | 30000 kPa
297.86 K, m1 = 1.824 | 1.671 | 1.672 | 1.672 | 1.673
297.86 K, m1 = 2.246 | 1.973 | 1.973 | 1.974 | 1.974
297.98 K, m1 = 0.608 | 1.078 | 1.077 | 1.077 | 1.078
298.43 K, m1 = 0.218 | 0.9454 | 0.9468 | 0.9471 | 0.9482
298.64 K, m1 = 0.951 | 1.193 | 1.194 | 1.194 | 1.194
298.65 K, m1 = 0.153 | 0.9231 | 0.9246 | 0.9251 | 0.9261
298.65 K, m1 = 0.288 | 0.9601 | 0.9606 | 0.961 | 0.962
299.24 K, m1 = 0.05 | 0.884 | 0.8839 | 0.8843 | 0.8845
299.76 K, m1 = 1.368 | 1.348 | 1.348 | 1.349 | 1.35
309.84 K, m1 = 2.246 | 1.537 | 1.539 | 1.542 | 1.545
321.54 K, m1 = 0.05 | 0.5771 | 0.579 | 0.5797 | 0.582
322.46 K, m1 = 2.246 | 1.225 | 1.231 | 1.236 | 1.241
322.56 K, m1 = 0.153 | 0.5821 | 0.5872 | 0.592 | 0.5938
322.56 K, m1 = 0.288 | 0.6103 | 0.6122 | 0.613 | 0.6145
323.46 K, m1 = 0.608 | 0.6691 | 0.6724 | 0.6754 | 0.6781
323.67 K, m1 = 0.951 | 0.7503 | 0.7533 | 0.7564 | 0.7595
323.74 K, m1 = 0.218 | 0.5854 | 0.5895 | 0.5944 | 0.5968
324.76 K, m1 = 1.824 | 1.026 | 1.031 | 1.036 | 1.04
326.78 K, m1 = 1.368 | 0.8295 | 0.8341 | 0.8376 | 0.8422
330.84 K, m1 = 2.246 | 1.072 | 1.078 | 1.082 | 1.089
338.46 K, m1 = 1.368 | 0.703 | 0.7074 | 0.7123 | 0.7174
347.43 K, m1 = 0.288 | 0.4289 | 0.4346 | 0.4376 | 0.4422
347.65 K, m1 = 0.05 | 0.3939 | 0.3949 | 0.3964 | 0.4013
347.82 K, m1 = 2.246 | 0.843 | 0.8486 | 0.8534 | 0.8621
347.94 K, m1 = 0.218 | 0.4152 | 0.4194 | 0.4228 | 0.426
348.89 K, m1 = 0.153 | 0.401 | 0.4057 | 0.4091 | 0.4122
349.46 K, m1 = 0.951 | 0.5292 | 0.5331 | 0.5374 | 0.5411
349.76 K, m1 = 0.608 | 0.4664 | 0.4708 | 0.4742 | 0.4779
349.76 K, m1 = 1.368 | 0.6103 | 0.6146 | 0.6194 | 0.6253
349.76 K, m1 = 1.824 | 0.722 | 0.728 | 0.7335 | 0.738
364.21 K, m1 = 2.246 | 0.6918 | 0.698 | 0.705 | 0.7104
372.46 K, m1 = 0.153 | 0.3059 | 0.3101 | 0.314 | 0.3166
372.48 K, m1 = 0.218 | 0.3134 | 0.3179 | 0.3212 | 0.3248
372.49 K, m1 = 1.368 | – | 0.4771 | 0.4824 | 0.4869
372.54 K, m1 = 0.05 | 0.2921 | 0.2949 | 0.2984 | 0.3015
372.84 K, m1 = 1.824 | 0.5558 | 0.5612 | 0.5672 | 0.5721
373.06 K, m1 = 0.288 | – | 0.3246 | 0.3275 | 0.3318
373.82 K, m1 = 0.608 | – | 0.36 | 0.3643 | 0.3681
375.48 K, m1 = 2.246 | – | 0.619 | 0.6251 | 0.6322
375.81 K, m1 = 0.951 | 0.395 | 0.399 | 0.4042 | 0.407
394.58 K, m1 = 2.246 | – | 0.5162 | 0.5211 | 0.5279
394.68 K, m1 = 0.05 | – | 0.2391 | 0.2416 | 0.2449
396.43 K, m1 = 0.951 | – | 0.3329 | 0.3365 | 0.3403
397.82 K, m1 = 0.153 | – | 0.2441 | 0.2474 | 0.2509
398.42 K, m1 = 0.288 | – | 0.2566 | 0.2608 | 0.2633
398.49 K, m1 = 0.608 | – | 0.289 | 0.293 | 0.2967
398.61 K, m1 = 0.218 | – | 0.249 | 0.2532 | 0.2549
399.46 K, m1 = 1.368 | – | 0.3743 | 0.3789 | 0.384
399.46 K, m1 = 1.824 | – | 0.4393 | 0.4445 | 0.4496
412.58 K, m1 = 2.246 | – | 0.4452 | 0.4505 | 0.4568
416.89 K, m1 = 1.368 | – | 0.327 | 0.3311 | 0.3363
421.95 K, m1 = 0.05 | – | 0.1929 | 0.1958 | 0.1985
422.49 K, m1 = 1.824 | – | 0.3682 | 0.3726 | 0.378
422.81 K, m1 = 0.288 | – | 0.2142 | 0.2168 | 0.2198
422.83 K, m1 = 0.951 | – | 0.2731 | 0.2767 | 0.2807
423.73 K, m1 = 0.608 | – | 0.2402 | 0.2435 | 0.2468
424.57 K, m1 = 0.153 | – | 0.1989 | 0.203 | 0.205
424.57 K, m1 = 0.218 | – | 0.2053 | 0.2081 | 0.2119
426.84 K, m1 = 2.246 | – | 0.4007 | 0.4063 | 0.4124
426.89 K, m1 = 1.368 | – | 0.3051 | 0.3095 | 0.3134
446.79 K, m1 = 2.246 | – | 0.3515 | 0.3578 | 0.3622
447.26 K, m1 = 1.368 | – | 0.2684 | 0.2714 | 0.276
448.24 K, m1 = 1.824 | – | 0.3116 | 0.3159 | 0.3211
448.96 K, m1 = 0.288 | – | 0.1818 | 0.1845 | 0.1878
449.28 K, m1 = 0.153 | – | 0.1703 | 0.1741 | 0.1764
449.46 K, m1 = 0.608 | – | 0.205 | 0.2085 | 0.2114
449.48 K, m1 = 0.951 | – | 0.2309 | 0.2347 | 0.2382
449.65 K, m1 = 0.05 | – | 0.1611 | 0.1639 | 0.1661
449.72 K, m1 = 0.218 | – | 0.175 | 0.1778 | 0.1807
471.51 K, m1 = 0.153 | – | 0.151 | 0.1534 | 0.1565
472.15 K, m1 = 0.05 | – | 0.142 | 0.1447 | 0.1468
472.46 K, m1 = 2.246 | – | 0.304 | 0.3094 | 0.314
473.12 K, m1 = 1.824 | – | 0.2716 | 0.2768 | 0.2808
473.87 K, m1 = 0.288 | – | 0.1591 | 0.1628 | 0.1645
474.24 K, m1 = 0.218 | – | 0.1536 | 0.156 | 0.1592
474.83 K, m1 = 0.608 | – | 0.1805 | 0.1834 | 0.186
475.84 K, m1 = 1.368 | – | 0.23 | 0.2342 | 0.2375
